# Assay results: US20090197922A1, “COMPOSITIONS AND METHODS FOR TREATING PULMONARY HYPERTENSION” (The University of Chicago, priority 2006, published 2009)
# Tests used:
# [1] = tested on: hypoxia-induced model of pulmonary hypertension in Dahl SS rats; test: Hemodynamic study (pressures, RV/LV weights) in hypoxia/SU5416 model of pulmonary hypertension; type: in vivo, rat
# Protocol: As part of the spectrum of sorafenib's pharmacologic activity overlaps with SU5416, a study was performed to determine whether sorafenib had similar effects or with additional mechanisms of inhibitory activity could counteract the effects of SU5416. Dahl Salt Sensitive rats were divided into 5 groups: normoxia+vehicle (normal, healthy control), hypoxia+SU5416 (positive control), hypoxia+sorafenib (safety comparison with SU5416), and hypoxia+sorafenib+SU5416 (therapeutic activity assessment). Echocardiograms were performed on all rats at the start of the study. Except for the normoxia group, all rats were maintained in a hypoxia chamber with a partial pressure of oxygen of 10% FiO2 for the duration of the study. Rats in the two SU5416 groups received one subcutaneous injection of SU5416 at the start of the study (20 mg/kg). Stock sorafenib solutions were prepared every three days, crushing and dissolving sorafenib tablets in EL/ethanol (50:50; Sigma Cremophor EL, 95% ethyl alcohol) at final concentration of 4 mg/mL, protected from light exposure and stored at room temperature. Final dosing solutions were prepared on the day of use by dilution of the stock solution to 1 mg/mL with water and administered by gavage to the rats daily. […] Organ and blood specimens were obtained for further evaluation. […] RV 3DE measurements were also determined (diameters+area), A=RV major diameter, B=RV annulus diastolic diameter & area, C=RV at ⅓ RV major diameter & area, D=RV at ⅔ RV major diameter & area.
# Protocol includes an initial administration of SU5416 subcutaneously at 20 mg/kg followed daily by sorenfenib oral daily doses of 2.5 mg/kg. Some animals were exposed to chronic hypoxia (10% O2). The animals were divided into five experimental groups: hypoxia+sorafenib; hypoxia+SU5416+sorafenib, normoxia+vehicle control; Hypoxia+vehicle; and hypoxia+SU5416. PAP, RVSP, Echo, and DNA microarrays were used to measure various physiological and molecular biological parameters. FIG. 4 illustrates that hypoxia/SU5416-induces increases in right heart pressures and right heart hypertrophy (RV/LV+Septum).
# Fifteen Dahl Salt Sensitive strain rats were divided into 5 groups: normoxia+vehicle (normal, healthy control), hypoxia+vehicle (hypoxia control), hypoxia+SU5416 (positive control), hypoxia+sorafenib (safety comparison with SU5416), and hypoxia+sorafenib+SU5416 (therapeutic activity assessment). Echocardiograms were performed on all rats at the start of the experiment. Except for the normoxia group, all rats were maintained in a hypoxia chamber with a partial pressure of oxygen of 10% FiO2 for the duration of the experiment. Rats in the 2 SU5416 groups received one subcutaneous injection of SU5416 at the start of the experiment (20 mg/kg). Stock sorafenib solutions were prepared every three days, crushing and dissolving sorafenib tablets in EL/ethanol (50:50; Sigma Cremophor EL, 95% ethyl alcohol) at final concentration of 4 mg/mL, protected from light exposure and stored at room temperature. Final dosing solutions were prepared on the day of use by dilution of the stock solution to 1 mg/mL with water and administered by gavage to the rats daily. […] Organ and blood specimens were obtained for further evaluation.
# [2] = tested on: hypoxia-induced model of pulmonary hypertension in Dahl SS rats; test: Echocardiography in hypoxia/SU5416 model of pulmonary hypertension; type: in vivo, rat; parameters: CO (PA): unit not given beside the values; RVAW / LVPW / CO (Ao) / MPA: unit not given here; details: echocardiogram
# Protocol: As part of the spectrum of sorafenib's pharmacologic activity overlaps with SU5416, a study was performed to determine whether sorafenib had similar effects or with additional mechanisms of inhibitory activity could counteract the effects of SU5416. […] Echocardiograms were performed on all rats at the start of the study. Except for the normoxia group, all rats were maintained in a hypoxia chamber with a partial pressure of oxygen of 10% FiO2 for the duration of the study. Rats in the two SU5416 groups received one subcutaneous injection of SU5416 at the start of the study (20 mg/kg). Stock sorafenib solutions were prepared every three days, crushing and dissolving sorafenib tablets in EL/ethanol (50:50; Sigma Cremophor EL, 95% ethyl alcohol) at final concentration of 4 mg/mL, protected from light exposure and stored at room temperature. Final dosing solutions were prepared on the day of use by dilution of the stock solution to 1 mg/mL with water and administered by gavage to the rats daily. After 3 weeks, all rats had echocardiography and hemodynamic studies. Organ and blood specimens were obtained for further evaluation. […] RV 3DE measurements were also determined (diameters+area), A=RV major diameter, B=RV annulus diastolic diameter & area, C=RV at ⅓ RV major diameter & area, D=RV at ⅔ RV major diameter & area.
# Echocardiograms were performed on all rats at the start of the experiment. Except for the normoxia group, all rats were maintained in a hypoxia chamber with a partial pressure of oxygen of 10% FiO2 for the duration of the experiment. Rats in the 2 SU5416 groups received one subcutaneous injection of SU5416 at the start of the experiment (20 mg/kg). Stock sorafenib solutions were prepared every three days, crushing and dissolving sorafenib tablets in EL/ethanol (50:50; Sigma Cremophor EL, 95% ethyl alcohol) at final concentration of 4 mg/mL, protected from light exposure and stored at room temperature. Final dosing solutions were prepared on the day of use by dilution of the stock solution to 1 mg/mL with water and administered by gavage to the rats daily. After 3 weeks, all rats had echocardiography and hemodynamic studies. Organ and blood specimens were obtained for further evaluation.
# [3] = Body weight of rats in hypoxia/SU5416 study; type: in vivo, rat; details: Dahl SS rats
# Protocol: Fifteen Dahl Salt Sensitive strain rats were divided into 5 groups: normoxia+vehicle (normal, healthy control), hypoxia+vehicle (hypoxia control), hypoxia+SU5416 (positive control), hypoxia+sorafenib (safety comparison with SU5416), and hypoxia+sorafenib+SU5416 (therapeutic activity assessment). Echocardiograms were performed on all rats at the start of the experiment. Except for the normoxia group, all rats were maintained in a hypoxia chamber with a partial pressure of oxygen of 10% FiO2 for the duration of the experiment. Rats in the 2 SU5416 groups received one subcutaneous injection of SU5416 at the start of the experiment (20 mg/kg). Stock sorafenib solutions were prepared every three days, crushing and dissolving sorafenib tablets in EL/ethanol (50:50; Sigma Cremophor EL, 95% ethyl alcohol) at final concentration of 4 mg/mL, protected from light exposure and stored at room temperature. Final dosing solutions were prepared on the day of use by dilution of the stock solution to 1 mg/mL with water and administered by gavage to the rats daily. After 3 weeks, all rats had echocardiography and hemodynamic studies. Organ and blood specimens were obtained for further evaluation.
# [4] = tested on: hypoxia-induced model of pulmonary hypertension in Dahl SS rats; details: previously demonstrated; cited from earlier work
# [5] = Wade et al., 2004; cited from earlier work
# [6] = room temperature and neutral pH; cited from earlier work
# [7] = tested on: PAH patients; details: case report, combination therapy with imatinib at 3 and 6 months; cited from earlier work
# [8] = 3½ Wk hypoxia (10% FiO2), sorafenib daily 2.5 mg/Kg, SU5416 day zero 20 mg/kg, 2 experiments as one cohort
# [9] = PRE (baseline at start of experiment)
smiles,measurement,setting,value
Cc1cc(C)c(/C=C2\C(=O)Nc3ccccc32)[nH]1 [SU5416],BP mmHg (+/−) SE,[1]; [8],78 +/− 4 mmHg
same,PA mmHg (+/−) SE,[1]; [8],33 +/− 3 mmHg
same,RVSP mmHg (+/−) SE,[1]; [8],30 +/− 4 mmHg
same,"development of pulmonary hypertension (right ventricular and pulmonary artery pressures, right ventricle/left ventricular weights)","[1]; hypoxia 10% FiO2, 3 weeks, SU5416 20 mg/kg once, sorafenib by gavage daily",developed pulmonary hypertension
same,CI (Ao),[2]; POST (after 3 weeks hypoxia),0.82 ± 0.22
same,CI(PA),[2]; POST (after 3 weeks hypoxia),0.87 ± 0.14
same,CO (Ao),[2]; POST (after 3 weeks hypoxia),261 ± 55
same,CO (PA),[2]; POST (after 3 weeks hypoxia),279 ± 69
same,FS (%),[2]; POST (after 3 weeks hypoxia),63 ± 4%
same,LV Mass (gram),[2]; POST (after 3 weeks hypoxia),1.25 ± 0.33 gram
same,LVPW,[2]; POST (after 3 weeks hypoxia),0.16 ± 0.02
same,MPA,[2]; POST (after 3 weeks hypoxia),0.41 ± 0.05
same,PA PG (mmHg),[2]; POST (after 3 weeks hypoxia),2.05 ± 0.92 mmHg
same,RVAW,[2]; POST (after 3 weeks hypoxia),0.16 ± 0.03
same,TV max PG (mmHg),[2]; POST (after 3 weeks hypoxia),5.63 ± 4.07 mmHg
same,CI (Ao),[2]; [9],0.95 ± 0.06
same,CI(PA),[2]; [9],1.21 ± 0.26
same,CO (Ao),[2]; [9],310 ± 10
same,CO (PA),[2]; [9],400 ± 99
same,FS (%),[2]; [9],71 ± 11%
same,LV Mass (gram),[2]; [9],1.30 ± 0.14 gram
same,LVPW,[2]; [9],0.16 ± 0.04
same,MPA,[2]; [9],0.45 ± 0.01
same,PA PG (mmHg),[2]; [9],3.65 ± 2.76 mmHg
same,RVAW,[2]; [9],0.07
same,Wt,[3]; POST (after 3 weeks hypoxia),324 ± 22 g
same,Wt,[3]; [9],328 ± 11 g
same,effect on pulmonary hypertension in hypoxic rats (previous reports),[4],exacerbate pulmonary hypertension
CCCCC[C@H](O)CC[C@@H]1[C@H]2Cc3cccc(OCC(=O)O)c3C[C@H]2C[C@H]1O [Treprostinil],half-life,[5],3 to 4 h
same,chemical stability,[6],chemically stable at room temperature and neutral pH
Cc1ccc(NC(=O)c2ccc(CN3CCN(C)CC3)cc2)cc1Nc1nccc(-c2cccnc2)n1 [imatinib],improvement in 6MW,[7],60%
